Test results published in patent publication US20200002432A1, “ANTI-CD98 ANTIBODIES AND ANTIBODY DRUG CONJUGATES” (AbbVie Inc., priority 2016, published 2020).

Experiments:
[1] = test system: A549-FP3 human lung carcinoma xenograft; test: A549 FP3 xenograft tumor growth inhibition in SCID-bg mice, with or without docetaxel; type: in vivo, mouse; settings: QD × 1, Ab095 8 mg/kg IP, docetaxel 7.5 mg/kg IV, ADC 10 mg/kg IP, combination 7.5 + 10
Method: (§1) The cell lines A549 and NCI-H460 were obtained from the American Type Culture Collection (ATCC, Manassas, Va.). A549 cell line was further passaged in mice as flank xenograft to improve xenograft tumor growth, resulting in the A549-FP3 line. Cells were cultured as monolayers in RPMI-1640 culture media (Invitrogen, Carlsbad, Calif.) supplemented with 10% Fetal Bovine Serum (FBS, Hyclone, Logan, Utah). To generate xenografts, 5×10^6 (A549 and NCI-H460) viable cells were inoculated subcutaneously into the right flank of immune deficient female SCID-bg mice (Charles River Laboratories, Wilmington, Mass.). The injection volume was 0.2 ml and composed of 1:1 S-MEM:Matrigel Matrigel (BD, Franklin Lakes, N.J.). Tumors were size matched at approximately 223 mm^3. Antibodies, conjugates, and docetaxel were formulated in 0.9% sodium chloride for injection. […] Therapy began within 24 hours after size matching of the tumors. Mice weighed approximately 21 g at the onset of therapy. Tumor volume was estimated two to three times weekly. Measurements of the length (L) and width (W) of the tumor were taken via electronic caliper and the volume was calculated according to the following equation: V=L×W^2/2. […] Eight mice were housed per cage. […] Tumor growth inhibition is calculated by 100*(1−Tv/Cv) where Tv and Cv are the mean tumor volumes of the treated and control groups, respectively.

[2] = test system: NCI-H460 human lung carcinoma xenograft; test: NCI-H460 xenograft tumor growth inhibition in SCID-bg mice, with or without docetaxel; type: in vivo, mouse; settings: QD × 1, Ab095 8 mg/kg IP, docetaxel 7.5 mg/kg IV, ADC 10 mg/kg IP, combination 7.5 + 10
Method: as §1

SMILES: CC(=O)O[C@@]12CO[C@@H]1C[C@H](O)[C@@]1(C)C(=O)[C@H](O)C3=C(C)[C@@H](OC(=O)[C@H](O)[C@@H](NC(=O)OC(C)(C)C)c4ccccc4)C[C@@](O)([C@@H](OC(=O)c4ccccc4)[C@H]21)C3(C)C [Docetaxel, reference compound]
- TGD (%) [1]: 80%
- TGImax (%) [1]: 62%
- TGD (%) [2]: 30%
- TGImax (%) [2]: 35%
